Measurements as given in patent US10597388B2, “Pyridazinone herbicides” (FMC CORPORATION, priority 2014, dated 2020).

How the values were obtained:
Assay type in all cases: in vivo
[1] = system: barnyardgrass (Echinochloa crus-galli); test: Test A greenhouse herbicide test, pre- and postemergence
From the text: (§1) Seeds of plant species selected from barnyardgrass (Echinochloa crus-galli), kochia (Kochia scoparia), ragweed (common ragweed, Ambrosia elatior), ryegrass, Italian (Italian ryegrass, Lolium multiflorum), crabgrass, large (large crabgrass, Digitaria sanguinalis), foxtail, giant (giant foxtail, Setaria faberii), momingglory (Ipomoea spp.), pigweed (Amaranthus retroflexus), velvetleaf (Abutilon theophrasti), wheat (Triticum aestivum), and corn (Zea mays) were planted into a blend of loam soil and sand and treated preemergence with a directed soil spray using test chemicals formulated in a non-phytotoxic solvent mixture which included a surfactant.
(§2) At the same time, plants selected from these crop and weed species and also blackgrass (Alopecurus myosuroides), and galium (catchweed bedstraw, Galium aparine) were planted in pots containing the same blend of loam soil and sand and treated with postemergence applications of test chemicals formulated in the same manner. Plants ranged in height from 2 to 10 cm and were in the one- to two-leaf stage for the postemergence treatment. Treated plants and untreated controls were maintained in a greenhouse for approximately 10 d, after which time all treated plants were compared to untreated controls and visually evaluated for injury. Plant response ratings, summarized in Table A, are based on a 0 to 100 scale where 0 is no effect and 100 is complete control. A dash (-) response means no test result.

corn (Zea mays) = test: as above; details: Postemergence; for Corn plant response rating: 0 to 100 scale, 0 is no effect, 100 is complete control
From the text: as §1, §2

[2] = system: foxtail, giant (giant foxtail, Setaria faberii); test: as above
From the text: as §1, §2

kochia (Kochia scoparia) = test: as above
From the text: as §1, §2

[3] = system: pigweed (Amaranthus retroflexus); test: as above
From the text: as §1, §2

[4] = system: ragweed (common ragweed, Ambrosia elatior); test: as above
From the text: as §1, §2

[5] = system: ryegrass, Italian (Italian ryegrass, Lolium multiflorum); test: as above
From the text: as §1, §2

[6] = system: wheat (Triticum aestivum); test: as above; details: Postemergence; for Wheat plant response rating: 0 to 100 scale, 0 is no effect, 100 is complete control
From the text: as §1, §2

[7] = system: blackgrass (Alopecurus myosuroides); test: Test A greenhouse herbicide test, postemergence; details: for Blackgrass plant response rating: 0 to 100 scale, 0 is no effect, 100 is complete control
From the text: as §2

[8] = system: galium (catchweed bedstraw, Galium aparine); test: Test A greenhouse herbicide test, postemergence; details: for Galium plant response rating: 0 to 100 scale, 0 is no effect, 100 is complete control
From the text: as §2

[9] = Postemergence, 125 g ai/ha, 0 to 100 scale where 0 is no effect and 100 is complete control
[10] = Postemergence, 500 g ai/ha, 0 to 100 scale, 0 is no effect, 100 is complete control
[11] = Preemergence, 125 g ai/ha, 0 to 100 scale where 0 is no effect and 100 is complete control
[12] = 125 g ai/ha, 0 to 100 scale where 0 is no effect and 100 is complete control
[13] = Preemergence, 500 g ai/ha, 0 to 100 scale where 0 is no effect and 100 is complete control
[14] = Postemergence, 500 g ai/ha, visual rating after approx. 10 d, 0 to 100 scale (0 no effect, 100 complete control)
[15] = 500 g ai/ha, visual rating after approx. 10 d, 0 to 100 scale (0 no effect, 100 complete control)

SMILES: CCc1nn(C)c(=O)c(-c2c(C)oc3ccc(Cl)cc23)c1O [Compound 77]
- Plant response rating, Barnyardgrass [1, 9]: 0
- Barnyardgrass plant response rating [1, 10]: 0
- Barnyardgrass plant response rating [1, 11]: 0
- Plant response rating, Barnyardgrass ([1]; Preemergence, 500 g ai/ha, 0 to 100 scale, 0 no effect, 100 complete control): 10
- Plant response rating, Corn (corn (Zea mays); [12]): 0
- Corn plant response rating (corn (Zea mays); 500 g ai/ha): 0
- Plant response rating, Foxtail, Giant [2, 9]: 0
- Foxtail, Giant plant response rating [2, 10]: 0
- Foxtail, Giant plant response rating [2, 11]: 0
- Plant response rating, Foxtail, Giant [2, 13]: 10
- Plant response rating, Kochia (kochia (Kochia scoparia); [9]): 0
- Kochia plant response rating (kochia (Kochia scoparia); [10]): 10
- Kochia plant response rating (kochia (Kochia scoparia); [11]): 0
- Plant response rating, Kochia (kochia (Kochia scoparia); [13]): 0
- Plant response rating, Pigweed [3, 9]: 0
- Pigweed plant response rating [3, 10]: 0
- Pigweed plant response rating [3, 11]: 0
- Plant response rating, Pigweed [3, 13]: 0
- Plant response rating, Ragweed [4, 9]: 0
- Ragweed plant response rating [4, 10]: 0
- Ragweed plant response rating [4, 11]: 0
- Plant response rating, Ragweed [4, 13]: 0
- Plant response rating, Ryegrass, Italian [5, 9]: 20
- Ryegrass, Italian plant response rating [5, 10]: 60
- Ryegrass, Italian plant response rating [5, 11]: 10
- Plant response rating, Ryegrass, Italian [5, 13]: 40
- Plant response rating, Wheat [6, 12]: 0
- Wheat plant response rating ([6]; 500 g ai/ha): 0
- Plant response rating, Blackgrass [7, 12]: 0
- Blackgrass plant response rating ([7]; 500 g ai/ha): 0
- Plant response rating, Galium [8, 12]: 20
- Galium plant response rating ([8]; 500 g ai/ha): 60

SMILES: Cc1nn(C)c(=O)c(-c2c(Cl)n(C)c3ccccc23)c1O [Compound 95]
- Plant response rating, Barnyardgrass [1, 9]: 0
- Barnyardgrass plant response rating [1, 10]: 10
- Barnyardgrass plant response rating [1, 11]: 0
- Plant response rating, Barnyardgrass [1, 13]: 0
- Plant response rating, Corn (corn (Zea mays); [12]): 0
- Corn plant response rating (corn (Zea mays); 500 g ai/ha): 0
- Plant response rating, Foxtail, Giant [2, 9]: 0
- Foxtail, Giant plant response rating [2, 10]: 0
- Foxtail, Giant plant response rating [2, 11]: 0
- Plant response rating, Foxtail, Giant [2, 13]: 0
- Plant response rating, Kochia (kochia (Kochia scoparia); [9]): 0
- Kochia plant response rating (kochia (Kochia scoparia); [10]): 10
- Kochia plant response rating (kochia (Kochia scoparia); [11]): 0
- Plant response rating, Kochia (kochia (Kochia scoparia); [13]): 10
- Plant response rating, Pigweed [3, 9]: 0
- Pigweed plant response rating [3, 10]: 0
- Pigweed plant response rating [3, 11]: 0
- Plant response rating, Pigweed [3, 13]: 20
- Plant response rating, Ragweed [4, 9]: 0
- Ragweed plant response rating [4, 10]: 10
- Ragweed plant response rating [4, 11]: 0
- Plant response rating, Ragweed [4, 13]: 20
- Plant response rating, Ryegrass, Italian [5, 9]: 10
- Ryegrass, Italian plant response rating [5, 10]: 50
- Ryegrass, Italian plant response rating [5, 11]: 10
- Plant response rating, Ryegrass, Italian [5, 13]: 60
- Plant response rating, Wheat [6, 12]: 0
- Wheat plant response rating ([6]; 500 g ai/ha): 0
- Plant response rating, Blackgrass [7, 12]: 0
- Blackgrass plant response rating ([7]; 500 g ai/ha): 10
- Plant response rating, Galium [8, 12]: 20
- Galium plant response rating ([8]; 500 g ai/ha): 60

SMILES: CC(=O)Oc1cnn(C)c(=O)c1-c1c(C)sc2ccccc12 [Compound 120]
- Plant response rating, Barnyardgrass [1, 9]: 0
- Plant response rating, Barnyardgrass [1, 14]: 10
- Barnyardgrass plant response rating [1, 11]: 0
- Plant response rating, Barnyardgrass [1, 13]: 30
- Plant response rating, Corn (corn (Zea mays); [12]): 0
- Plant response rating, Corn (corn (Zea mays); [15]): 0
- Plant response rating, Foxtail, Giant [2, 9]: 0
- Plant response rating, Foxtail, Giant [2, 14]: 10
- Foxtail, Giant plant response rating [2, 11]: 0
- Plant response rating, Foxtail, Giant [2, 13]: 20
- Plant response rating, Kochia (kochia (Kochia scoparia); [9]): 0
- Plant response rating, Kochia (kochia (Kochia scoparia); [14]): 30
- Kochia plant response rating (kochia (Kochia scoparia); [11]): 0
- Plant response rating, Kochia (kochia (Kochia scoparia); [13]): 0
- Plant response rating, Pigweed [3, 9]: 20
- Plant response rating, Pigweed [3, 14]: 50
- Pigweed plant response rating [3, 11]: 0
- Plant response rating, Pigweed [3, 13]: 70
- Plant response rating, Ragweed [4, 9]: 0
- Plant response rating, Ragweed [4, 14]: 10
- Ragweed plant response rating [4, 11]: 0
- Plant response rating, Ragweed [4, 13]: 30
- Plant response rating, Ryegrass, Italian [5, 9]: 20
- Plant response rating, Ryegrass, Italian [5, 14]: 80
- Ryegrass, Italian plant response rating [5, 11]: 30
- Plant response rating, Ryegrass, Italian [5, 13]: 30
- Plant response rating, Wheat [6, 12]: 0
- Plant response rating, Wheat [6, 15]: 0
- Plant response rating, Blackgrass [7, 12]: 0
- Plant response rating, Blackgrass [7, 15]: 10
- Plant response rating, Galium [8, 12]: 40
- Plant response rating, Galium [8, 15]: 70

SMILES: Cc1sc2ccc(C(F)(F)F)cc2c1-c1c(O)c(Cl)nn(C)c1=O [Compound 140]
- Plant response rating, Barnyardgrass [1, 9]: 50
- Plant response rating, Barnyardgrass [1, 14]: 90
- Barnyardgrass plant response rating [1, 11]: 50
- Plant response rating, Barnyardgrass [1, 13]: 70
- Plant response rating, Corn (corn (Zea mays); [12]): 20
- Plant response rating, Corn (corn (Zea mays); [15]): 30
- Plant response rating, Foxtail, Giant [2, 9]: 40
- Plant response rating, Foxtail, Giant [2, 14]: 90
- Foxtail, Giant plant response rating [2, 11]: 50
- Plant response rating, Foxtail, Giant [2, 13]: 80
- Plant response rating, Kochia (kochia (Kochia scoparia); [9]): 30
- Plant response rating, Kochia (kochia (Kochia scoparia); [14]): 70
- Kochia plant response rating (kochia (Kochia scoparia); [11]): 0
- Plant response rating, Kochia (kochia (Kochia scoparia); [13]): 30
- Plant response rating, Pigweed [3, 9]: 70
- Plant response rating, Pigweed [3, 14]: 90
- Pigweed plant response rating [3, 11]: 50
- Plant response rating, Pigweed [3, 13]: 100
- Plant response rating, Ragweed [4, 9]: 90
- Plant response rating, Ragweed [4, 14]: 100
- Plant response rating, Ragweed [4, 13]: 90
- Plant response rating, Ryegrass, Italian [5, 9]: 70
- Plant response rating, Ryegrass, Italian [5, 14]: 100
- Plant response rating, Ryegrass, Italian [5, 13]: 90
- Plant response rating, Wheat [6, 12]: 20
- Plant response rating, Wheat [6, 15]: 70
- Plant response rating, Blackgrass [7, 12]: 30
- Plant response rating, Blackgrass [7, 15]: 50
- Plant response rating, Galium [8, 12]: 70
- Plant response rating, Galium [8, 15]: 90

SMILES: Cc1ccc2ccccc2c1-c1c(OS(C)(=O)=O)cnn(C)c1=O [Compound 142]
- Plant response rating, Barnyardgrass [1, 9]: 10
- Plant response rating, Barnyardgrass [1, 14]: 20
- Barnyardgrass plant response rating [1, 11]: 10
- Plant response rating, Barnyardgrass [1, 13]: 70
- Plant response rating, Corn (corn (Zea mays); [12]): 0
- Plant response rating, Corn (corn (Zea mays); [15]): 0
- Plant response rating, Foxtail, Giant [2, 9]: 10
- Plant response rating, Foxtail, Giant [2, 14]: 20
- Foxtail, Giant plant response rating [2, 11]: 10
- Plant response rating, Foxtail, Giant [2, 13]: 60
- Plant response rating, Kochia (kochia (Kochia scoparia); [9]): 0
- Plant response rating, Kochia (kochia (Kochia scoparia); [14]): 20
- Kochia plant response rating (kochia (Kochia scoparia); [11]): 0
- Plant response rating, Kochia (kochia (Kochia scoparia); [13]): 0
- Plant response rating, Pigweed [3, 9]: 20
- Plant response rating, Pigweed [3, 14]: 50
- Pigweed plant response rating [3, 11]: 60
- Plant response rating, Pigweed [3, 13]: 50
- Plant response rating, Ragweed [4, 9]: 0
- Plant response rating, Ragweed [4, 14]: 20
- Plant response rating, Ragweed [4, 13]: 40
- Plant response rating, Ryegrass, Italian [5, 9]: 80
- Plant response rating, Ryegrass, Italian [5, 14]: 90
- Plant response rating, Ryegrass, Italian [5, 13]: 80
- Plant response rating, Wheat [6, 12]: 0
- Plant response rating, Wheat [6, 15]: 0
- Plant response rating, Blackgrass [7, 12]: 10
- Plant response rating, Blackgrass [7, 15]: 20
- Plant response rating, Galium [8, 12]: 70
- Plant response rating, Galium [8, 15]: 80
